Where a SMILES comes first, the peptide text is derived from it. [ ]: non-standard residue; d: D form.
Target: T1, human PTHR1-H223R (Homo sapiens, UniProt Q03431, H223R)
T1 construct: expressed in transfected cells; host or cells: GHR-10 (HEK-293 stably expressing GloSensor and PTHR1-H223R)
T1 sequence (Q03431 27-593 H223R): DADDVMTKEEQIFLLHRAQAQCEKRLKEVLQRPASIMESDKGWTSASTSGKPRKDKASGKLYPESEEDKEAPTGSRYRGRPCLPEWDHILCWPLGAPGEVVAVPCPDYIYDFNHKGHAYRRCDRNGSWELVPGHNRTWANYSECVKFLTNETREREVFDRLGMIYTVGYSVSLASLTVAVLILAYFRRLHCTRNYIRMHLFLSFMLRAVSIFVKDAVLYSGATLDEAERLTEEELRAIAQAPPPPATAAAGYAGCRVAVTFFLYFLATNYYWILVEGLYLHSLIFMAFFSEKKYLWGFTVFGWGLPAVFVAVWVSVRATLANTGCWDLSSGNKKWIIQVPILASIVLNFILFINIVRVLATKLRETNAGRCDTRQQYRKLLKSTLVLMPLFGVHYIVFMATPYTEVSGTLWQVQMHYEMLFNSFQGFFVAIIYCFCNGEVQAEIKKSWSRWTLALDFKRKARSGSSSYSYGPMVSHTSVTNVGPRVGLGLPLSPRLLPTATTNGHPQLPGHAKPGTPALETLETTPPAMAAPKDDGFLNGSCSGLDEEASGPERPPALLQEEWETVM
Assay: Inverse agonism on basal cAMP signaling in GHR-10 cells
Assay type: cell-based

In the case of CC[C@H](C)[C@H](N)C(=O)N[C@@H](CCC(N)=O)C(=O)N[C@@H](CC(C)C)C(=O)N[C@@H](CCSC)C(=O)N[C@@H](Cc1c[nH]cn1)C(=O)N[C@@H](CCC(N)=O)C(=O)N[C@@H](CCCNC(=N)N)C(=O)N[C@H](Cc1c[nH]c2ccccc12)C(=O)N[C@@H](CCCCN)C(=O)N[C@@H](Cc1c[nH]c2ccccc12)C(=O)N[C@H](C(=O)N[C@@H](CCC(N)=O)C(=O)N[C@@H](CC(=O)O)C(=O)N[C@@H](C)C(=O)N[C@@H](CCCNC(=N)N)C(=O)N[C@@H](CCCNC(=N)N)C(=O)N[C@@H](CCCNC(=N)N)C(=O)N[C@@H](C)C(=O)N[C@@H](Cc1c[nH]c2ccccc12)C(=O)N[C@@H](CC(C)C)C(=O)N[C@@H](Cc1c[nH]cn1)C(=O)N[C@@H](CCCCN)C(=O)N[C@@H](CC(C)C)C(=O)N[C@H](C(=O)N[C@@H](C)C(=O)N[C@@H](CCC(=O)O)C(=O)N[C@H](C(=O)N[C@@H](Cc1c[nH]cn1)C(=O)N[C@H](C(=O)N[C@@H](C)C(=O)N[C@@H](CCC(=O)O)C(=O)N[C@H](C(N)=O)[C@@H](C)CC)[C@@H](C)O)[C@@H](C)CC)[C@@H](C)CC)[C@@H](C)CC [compound 1949, dW12, W23-LA-PTH(5-36)] (H-IQLMHQR[dW]KWIQDARRRAWLHKLIAEIHTAEI-NH2; N-terminus assumed), the “inverse agonist properties on constitutively active PTHR1-H223R (basal cAMP)” value (GHR-10 cells (HEK293/GloSensor)) is reported as “exhibited inverse agonist properties”, the “Reduction of basal cAMP, % vehicle, After ligand washout” value (GHR-10 cells, 26 minutes after washout of unbound ligand, from AUC, representative experiment) is reported as 30 % vehicle and the “Reduction of basal cAMP, % vehicle, Ligand @ −6M” value (GHR-10 cells, peptide 1×10^−6 M for 24 minutes, from AUC, representative experiment) is reported as 41 % vehicle.
